Measured values as given in patent US20080242674A1, “Medicine For Prevention or Treatment of Frequent Urination or Urinary Incontinence” (priority 2004, published 2008).
Counter-ions that a name gives are not always drawn.

Tests used:
anesthetized rats = experiment: Intra-bladder pressure measurement in anesthetized rat; type: in vivo; details: male rats, urethane anesthesia, after midodorin hydrochloride 3 mg/kg iv, isoproterenol 10 mg/kg iv = 100%
Source text: Male rats were anesthetized with urethane. To each rat, tracheal and femoral vein cannulas were inserted. After midline abdominal incision, the ureter on either side was ligated and cut at the proximal end of the ligated portion. After the urethra was ligated, a cannula was inserted into the urinary bladder through the top of the bladder dome. Through a three-way connecter, warmed saline was instilled to adjust the intra-bladder pressure to about 10 cmH2O. The other end of the bladder cannula was connected to a pressure transducer, and intra-bladder pressure was measured. Three mg/kg of midodorin hydrochloride was injected through the femoral vein cannula. Ten minutes after the midodorin hydrochloride injection, tamsulosin hydrochloride (5 mg/kg, iv) or compound 1 (10 mg/kg, iv) was intravenously injected, and the decreasing effect by single administration of each drug was evaluated. Next, 15 minutes after administration, compound 1 (10 mg/kg, iv) was intravenously injected to the animal treated with tamsulosin hydrochloride (5 mg/kg, iv) to evaluate the combinational effect. At the last, 10 mg/kg of isoproterenol was intravenously injected, and the maximum decreasing effect was set as 100% .

[1] = test system: acetic acid-stimulated rats; experiment: Micturition interval measurement in acetic acid-stimulated rat; type: in vivo; details: female rats, urethane anesthesia, 0.25% acetic acid instilled into the bladder, 30 minutes after administration
Source text: Female rats were anesthetized with urethane. After the midline abdominal was incised, and the ureter on either side was ligated and cut, the renal end was kept open. A cannula was inserted into the urinary bladder through the top of the bladder dome and connected to a three-way connecter to establish routes for the intra-bladder pressure measurement and instillation into the bladder. The other end of the bladder cannula was connected to a pressure transducer, and intra-bladder pressure was measured. Saline was continuously instilled into the bladder (3.6 mL/hr) . […] After stable micturition intervals were obtained, silodosin (0.03 mg/kg), (−)-2-[4-[2-[[(1S, 2R)-2-hydroxy-2-(4-hydroxyphenyl)-1-methylethyl]amino]ethyl]-2,5-dimethylphenoxy] acetic acid (hereinafter referred to as “compound 2”) (1 mg/kg) or both of silodosin (0.03 mg/kg) and compound 2 (1 mg/kg) were injected through a femoral venous cannula respectively, and time from when a micturition occurred till when the next micturition was induced (micturition interval) was measured. Mean micturition intervals for 2 times before each drug administration and for all micturition which occurred in 30 minutes after the drug administration were calculated, and the change to the mean value before administration was evaluated. […]

Structure (SMILES): CCOc1ccccc1OCCN[C@H](C)Cc1ccc(OC)c(S(N)(=O)=O)c1 [tamsulosin hydrochloride]
- effect decreasing the intra-bladder pressure (percentage of the maximum decreasing effect by isoproterenol) (anesthetized rats; tamsulosin hydrochloride 5 mg/kg iv alone): 26%

Structure (SMILES): CCOC(=O)COc1cc(C)c(CCN[C@@H](C)[C@H](O)c2ccc(O)cc2)cc1C [compound 1, ethyl (−)-2-[4-[2-[[(1S, 2R) -2-hydroxy-2-(4-hydroxyphenyl)1-methylethyl]amino]ethyl]-2,5-dimethyl-phenoxy]acetate]
- effect decreasing the intra-bladder pressure (percentage of the maximum decreasing effect by isoproterenol) (anesthetized rats; compound 1 10 mg/kg iv alone): 37%

Structure (SMILES): C[C@H](Cc1cc2c(c(C(N)=O)c1)N(CCCO)CC2)NCCOc1ccccc1OCC(F)(F)F [silodosin]
- change in the micturition interval (percentage of the mean value before administration) ([1]; silodosin 0.03 mg/kg iv alone): 115.2%

Structure (SMILES): Cc1cc(OCC(=O)O)c(C)cc1CCN[C@@H](C)[C@H](O)c1ccc(O)cc1 [compound 2, (−)-2-[4-[2-[[(1S, 2R)-2-hydroxy-2-(4-hydroxyphenyl)-1-methylethyl]amino]ethyl]-2,5-dimethylphenoxy] acetic acid]
- change in the micturition interval (percentage of the mean value before administration) ([1]; compound 2 1 mg/kg iv alone): 116.3%
